What is called IC50 is the midpoint of a concentration-inhibition curve. High values mean lower potency, low ones higher potency.

In one experiment the target is T1, HGFR (Homo sapiens, UniProt P08581).
T1 construct: endogenous in cells; host or cells: MKN-45 human gastric cancer cells
Put plainly: Inhibitory activity against the HGFR autophosphorylation using ELISA (MKN-45 cells). Format: cell-based. The note with it: 1 hr with test substance. How it is done:
Human gastric cancer cells (MKN-45) were suspended in a 1% FBS-containing RPMI1640 medium (purchased from Sigma). The cell suspension (1×10^5 cells/ml) was put in a 96-well plate for cell culture (purchased from NUNC, Production No. 167008) at 0.1 ml/well, and then cultured in a 5% CO2 incubator (37° C.) overnight. After the culture, from each well was removed the supernatant, followed by adding 0.05 ml of a 1% FBS-containing RPMI1640 medium. Then, the well was supplied with 0.05 ml of the test substance dissolved in dimethyl sulfoxide (diluted with a 1% FBS-containing RPMI1640 medium), followed by culturing in a 5% CO2 incubator (37° C.) for 1 hr. From each well was removed the supernatant, and each well was washed with 150 μl of PBS, followed by adding 100 μl of a lysis buffer (50 mM Hepes (pH 7.4), 150 mM NaCl, 10% (v/v) glycerol, 1% Triton X-100, 1.5 mM MgCl2, 1 mM EDTA (pH 8.0), 100 mM NaF, 1 mM PMSF, 10 μg/ml Aprotinin, 50 μg/ml Leupeptin, 1 μg/ml Pepstatin A and 1 mM Na3VO4). The plate was shaken at 4° C. for 1 hr to prepare the cell extract.
To a 96-well plate for ELISA (purchased from COSTAR, Production No. 3369) was added 50 μl of 60 mM bicarbonate buffer (pH 9.6) containing 50 μg/ml of an anti-phosphotyrosine antibody (PY20, purchased from Transduction Laboratory, Production No. P-11120). The plate was incubated at 4° C. overnight.
Each well of the plate prepared in 2. was washed three times with 200 μl of PBS, and supplied with 150 μl of 3% BSA/PBS, followed by incubating at room temperature for 2 hrs. Each well was washed three times with 200 μl of PBS, and supplied with 50 μl of the above cell extract, followed by incubating at 4° C. overnight. After the incubation, each well was washed three times with 250 μl of a washing solution (0.1% BSA, 20 mM Tris-HCl (pH 7.6), 137 mM NaCl, and 0.05% Tween-20), and supplied with 70 μl of anti-HGFR antibody (h-Met(C-12), purchased from Santa Cruz, Production No. sc-10) 2,000-fold diluted with a reaction solution (1% BSA, 20 mM Tris-HCl (pH 7.6), 137 mM NaCl and 0.05% Tween-20), followed by incubating at room temperature for 1 hr. The well was washed three times with 250 μl of the washing solution, and supplied with 70 μl of peroxidase-labelled anti-rabbit IgG antibody (purchased from Cell Signaling, Production No. 7074) 2,000-fold diluted with the reaction solution, followed by incubating at room temperature for 1 hr. Each well was washed three times with 250 μl of the washing solution, and supplied with 70 μl of TMB Membrane Peroxidase Substrate (purchased from Funakoshi, Production No. 50-5077-03), followed by incubating at room temperature for 10 min. Each well was supplied with 70 μl of 1 M phosphoric acid, and using the Plate Reader MTP-500 (Corona Electric), the absorbance of the well was instantly determined at a measurement wavelength of 450 nm. While defining the absorbance of a well supplied with the cell extract having no test substance as 100% HGFR autophosphorylation activity, and the absorbance of a well supplied with 50 μl of the lysis buffer as 0% HGFR autophosphorylation activity, the HGFR autophosphorylation activity (%) was calculated for each well.
For orientation: ELISA stands for enzyme-linked immunosorbent assay.

In experiment [1] the test system is Human gastric cancer cells (MKN-45). Put plainly: Inhibitory activity against the proliferation of human gastric cancer cells (MKN-45). Format: cell-based. The following applies: 72 h, MKN-45, 1% FBS RPMI1640, 3 days, Cell Counting Kit-8. As for the experimental part:
Human gastric cancer cells (MKN-45) were suspended in a 1% FBS-containing RPMI1640 medium (purchased from Sigma). The cell suspension (1×10^4 cells/ml) was added in a 96-well plate for cell culture (purchased from NUNC, Production No. 167008) at 0.1 ml/well, and then cultured in a 5% CO2 incubator (37° C.) overnight. After the culture, each well was supplied with 0.1 ml of a test substance diluted with a 1% FBS-containing RPMI1640 medium, followed by culturing in a 5% CO2 incubator (37° C.) for 3 days. After the culture, each well was supplied with 10 μl of Cell Counting Kit-8 (purchased from DOJINDO, Production No. 343-07623), followed by incubation in a 5% CO2 incubator (37° C.) for about 1.5 hrs. After the incubation, using the Plate Reader MTP-500 (Corona Electric), the absorbance of each well was determined at a measurement wavelength of 450 nm and a reference wavelength of 660 nm.

T1 sequence (P08581 25-1390): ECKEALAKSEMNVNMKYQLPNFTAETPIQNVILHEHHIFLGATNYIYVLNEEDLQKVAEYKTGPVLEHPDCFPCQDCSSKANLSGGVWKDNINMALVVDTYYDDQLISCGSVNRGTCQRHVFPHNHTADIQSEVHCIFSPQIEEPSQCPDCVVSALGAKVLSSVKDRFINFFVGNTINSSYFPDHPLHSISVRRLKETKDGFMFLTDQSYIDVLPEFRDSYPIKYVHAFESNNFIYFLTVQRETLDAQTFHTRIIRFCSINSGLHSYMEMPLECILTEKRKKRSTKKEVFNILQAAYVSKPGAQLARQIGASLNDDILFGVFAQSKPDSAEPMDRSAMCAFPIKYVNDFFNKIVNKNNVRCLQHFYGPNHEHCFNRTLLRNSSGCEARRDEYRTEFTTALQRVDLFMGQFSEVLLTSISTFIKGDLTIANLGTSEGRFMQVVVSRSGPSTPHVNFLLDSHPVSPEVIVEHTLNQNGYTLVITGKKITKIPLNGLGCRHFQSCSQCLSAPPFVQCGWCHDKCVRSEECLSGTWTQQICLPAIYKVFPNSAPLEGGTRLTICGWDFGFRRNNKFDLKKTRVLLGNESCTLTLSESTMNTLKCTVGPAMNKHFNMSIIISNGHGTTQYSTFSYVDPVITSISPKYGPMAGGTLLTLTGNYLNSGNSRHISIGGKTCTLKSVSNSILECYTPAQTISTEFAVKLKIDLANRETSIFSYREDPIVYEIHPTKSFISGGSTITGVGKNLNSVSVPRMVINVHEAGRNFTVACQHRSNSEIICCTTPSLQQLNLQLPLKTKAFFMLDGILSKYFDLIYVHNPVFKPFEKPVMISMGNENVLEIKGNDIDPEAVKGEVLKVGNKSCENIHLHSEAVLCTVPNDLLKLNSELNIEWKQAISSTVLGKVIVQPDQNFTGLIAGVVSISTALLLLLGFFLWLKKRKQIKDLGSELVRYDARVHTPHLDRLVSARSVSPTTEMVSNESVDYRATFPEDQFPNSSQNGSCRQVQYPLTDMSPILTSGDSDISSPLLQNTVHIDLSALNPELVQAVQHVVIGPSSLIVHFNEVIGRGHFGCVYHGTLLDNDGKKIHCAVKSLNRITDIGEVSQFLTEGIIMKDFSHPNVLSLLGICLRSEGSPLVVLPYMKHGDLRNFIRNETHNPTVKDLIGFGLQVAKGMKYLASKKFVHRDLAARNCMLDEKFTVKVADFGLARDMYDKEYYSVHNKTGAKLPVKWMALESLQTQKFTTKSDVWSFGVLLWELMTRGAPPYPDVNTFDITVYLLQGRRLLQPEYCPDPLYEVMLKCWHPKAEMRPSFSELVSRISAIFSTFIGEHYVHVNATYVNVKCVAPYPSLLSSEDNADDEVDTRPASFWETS

With `CN(C)C1CN(C(=O)Nc2cc(Oc3ccc(NC(=O)C4(C(=O)Nc5ccc(F)cc5)CC4)c(F)c3)ccn2)C1` [Example 76, N-(4-{[2-({[3-(Dimethylamino)azetidin-1-yl]carbonyl}amino)pyridin-4-yl]oxy}-2-fluorophenyl)-N′-(4-fluorophenyl)cyclopropane-1,1-dicarboxamide], the IC50 came to 30 nM at HGFR and 19 nM in experiment [1].

Regarding `CN1CCC(N2CCN(C(=O)Nc3cc(Oc4ccc(NC(=O)C5(C(=O)Nc6ccc(F)cc6)CC5)c(F)c4)ccn3)CC2)CC1` [Example 16, N-(2-Fluoro-4-{[2-({[4-(1-methylpiperidin-4-yl)piperazin-1-yl]carbonyl}amino)pyridin-4-yl]oxy}phenyl)-N′-(4-fluorophenyl)cyclopropane-1,1-dicarboxamide], the IC50 was 18 nM at HGFR and 17 nM in experiment [1].

In the case of `CN1CCN(C(=O)Nc2cc(Oc3ccc(NC(=O)C4(C(=O)Nc5ccc(F)cc5)CC4)c(F)c3)ccn2)CC1` [Example 64, N-{2-Fluoro-4-[(2-{[(1-methylpiperazin-4-yl)carbonyl]amino}pyridin-4-yl)oxy]phenyl}-N′-(4-fluorophenyl)cyclopropane-1,1-dicarboxamide], the 50% inhibitory concentration (IC50) came out at 20 nM against HGFR and 57 nM in experiment [1].

Take `O=C(Nc1cc(Oc2ccc(NC(=O)C3(C(=O)Nc4ccc(F)cc4)CC3)cc2F)ccn1)N1CCCC1` [Example 66, N-(4-Fluorophenyl)-N′-[3-fluoro-4-({2-[(pyrrolidin-1-ylcarbonyl)amino]pyridin-4-yl}oxy)phenyl]cyclopropane-1,1′-dicarboxamide]: the results for the IC50 (against HGFR; in experiment [1]) were 13 nM and 31 nM, respectively.

Regarding `CN(C)C1CCN(C(=O)Nc2cc(Oc3ccc(NC(=O)C4(C(=O)Nc5ccc(F)cc5)CC4)c(F)c3)ccn2)CC1` [Example 18, N-(4-{[2-({[4-(Dimethylamino)piperidin-1-yl]carbonyl}amino)pyridin-4-yl]oxy}-2-fluorophenyl)-N′-(4-fluorophenyl)cyclopropane-1,1-dicarboxamide], the half-maximal inhibitory concentration (IC50) is 39 nM on HGFR and 33 nM in experiment [1].

`COC1CN(C(=O)Nc2cc(Oc3ccc(NC(=O)C4(C(=O)Nc5ccc(F)cc5)CC4)c(F)c3)ccn2)C1` [Example 78, N-[2-Fluoro-4-[(2-{[(3-methoxyazetidin-1-yl)carbonyl]amino}pyridin-4-yl)oxy]phenyl}-N′-(4-fluorophenyl)cyclopropane-1,1-dicarboxamide]: the 50% inhibitory concentration (IC50) at HGFR was 15 nM; in experiment [1], 12 nM.

Regarding `O=C(Nc1cc(Oc2ccc(NC(=O)C3(C(=O)Nc4ccc(F)cc4)CC3)c(F)c2)ccn1)N1CCC(N2CCCC2)CC1` [Example 4, N-(4-Fluorophenyl)-N′-{2-fluoro-4-[(2-{[(4-pyrrolidin-1-ylpiperidin-1-yl)carbonyl]amino}pyridin-4-yl)oxy]phenyl}cyclopropane-1,1-dicarboxamide], the concentration for half-maximal inhibition (IC50) against HGFR came out at 14 nM; in experiment [1], 21 nM.

As to `CN(C)C1CN(C2CCN(C(=O)Nc3cc(Oc4ccc(NC(=O)C5(C(=O)Nc6ccc(F)cc6)CC5)cc4)ccn3)CC2)C1` [Example 38, N-[4-({2-[({4-[3-(Dimethylamino)azetidin-1-yl]piperidin-1-yl}carbonyl)amino]pyridin-4-yl}oxy)phenyl]-N′-(4-fluorophenyl)cyclopropane-1,1-dicarboxamide], the IC50 against HGFR is 18 nM; in experiment [1], 52 nM.

`CN1CC(N2CCN(C(=O)Nc3cc(Oc4ccc(NC(=O)C5(C(=O)Nc6ccc(F)cc6)CC5)c(F)c4)ccn3)CC2)C1` [Example 17]: the IC50 at HGFR amounted to 15 nM; in experiment [1] it was 14 nM.

For `CN1CCN(C2CCN(C(=O)Nc3cc(Oc4cc(F)c(NC(=O)C5(C(=O)Nc6ccc(F)cc6)CC5)cc4F)ncn3)CC2)CC1` [Example 101, N-(2,5-Difluoro-4-{[4-({[4-(4-methylpiperazin-1-yl)piperidin-1-yl]carbonyl}amino)pyrimidin-6-yl]oxy}phenyl)-N′-(4-fluorophenyl)cyclopropane-1,1-dicarboxamide], the figures for the IC50 (on HGFR; in experiment [1]) were 15 nM and 16 nM, respectively.

Turning to `O=C(Nc1cc(Oc2ccc(NC(=O)C3(C(=O)Nc4ccc(F)cc4)CC3)cc2)ccn1)N1CCC1` [Example 70, N-[4-({2-[(Azetidin-1-ylcarbonyl)amino]pyridin-4-yl}oxy)phenyl]-N′-(4-fluorophenyl)cyclopropane-1,1-dicarboxamide], the IC50 came to 27 nM against HGFR and 54 nM in experiment [1].

As for `CN1CCN(C2CCN(C(=O)Nc3cc(Oc4ccc(NC(=O)C5(C(=O)Nc6ccccc6)CC5)c(F)c4)ccn3)CC2)CC1` [Example 54, N-(2-Fluoro-4-{[2-({[4-(4-methylpiperazin-1-yl)piperidin-1-yl]carbonyl}amino)pyridin-4-yl]oxy}phenyl)-N′-phenylcyclopropane-1,1-dicarboxamide], the IC50 came to 24 nM at HGFR and 20 nM in experiment [1].

As to `CN(C)[C@@H]1CCN(C(=O)Nc2cc(Oc3ccc(NC(=O)C4(C(=O)Nc5ccc(F)cc5)CC4)c(F)c3)ccn2)C1` [Example 47, N-(4-{[2-({[(3R)-3-(Dimethylamino)pyrrolidin-1-yl]carbonyl}amino)pyridin-4-yl]oxy}-2-fluorophenyl)-N′-(4-fluorophenyl)cyclopropane-1,1-dicarboxamide], the values for the IC50 (at HGFR; in experiment [1]) were 30 nM and 27 nM, respectively.

With `CN(C)[C@H]1CCN(C(=O)Nc2cc(Oc3ccc(NC(=O)C4(C(=O)Nc5ccccc5)CC4)c(F)c3)ccn2)C1` [Example 58, N-(4-{[2-({[(3S)-3-(Dimethylamino)pyrrolidin-1-yl]carbonyl}amino)pyridin-4-yl]oxy}-2-fluorophenyl)-N′-phenylcyclopropane-1,1-dicarboxamide], the values for the IC50 (at HGFR; in experiment [1]) were 17 nM and 25 nM, respectively.

With `O=C(Nc1cc(Oc2ccc(NC(=O)C3(C(=O)Nc4ccc(F)cc4)CC3)c(F)c2)ccn1)N1CCC1` [Example 61, N-[4-({2-[(Azetidin-1-ylcarbonyl)amino]pyridin-4-yl]oxy}-2-fluorophenyl]-N′-(4-fluorophenyl)cyclopropane-1,1-dicarboxamide], the IC50 was 8 nM against HGFR and 15 nM in experiment [1].

On to `CN(C)[C@H]1CCN(C(=O)Nc2cc(Oc3ccc(NC(=O)C4(C(=O)Nc5ccc(F)cc5)CC4)cc3F)ccn2)C1` [Example 24, N-(4-{[2-({[(3S)-3-(Dimethylamino)pyrrolidin-1-yl]carbonyl}amino)pyridin-4-yl]oxy}-3-fluorophenyl)-N′-(4-fluorophenyl)cyclopropane-1,1-dicarboxamide], for which the half-inhibitory concentration (IC50) is 27 nM against HGFR and 17 nM in experiment [1].

As for `CN1CCC(N(C)C(=O)Nc2cc(Oc3cc(F)c(NC(=O)C4(C(=O)Nc5ccc(F)cc5)CC4)cc3F)ncn2)CC1` [Example 100, N-(2,5-Difluoro-4-{[4-({[methyl(1-methylpiperidin-4-yl)amino]carbonyl}amino)pyrimidin-6-yl]oxy}phenyl)-N′-(4-fluorophenyl)cyclopropane-1,1-dicarboxamide], the IC50 against HGFR was determined as 9.4 nM; in experiment [1] it was 16 nM.

The values are drawn from patent US7855290B2, “Pyridine derivatives and pyrimidine derivatives (3)” (Eisai R&D Management Co., Ltd., priority 2005, dated 2010).
